Results from patent US8802597B2, “Herbicidal pyrimidines” (E I du Pont de Nemours and Company, priority 2003, dated 2014).

Experiments:
Assay type in all cases: in vivo
[1] = test system: bermudagrass (Cynodon dactylon); experiment: Test C pre/postemergence; conditions: for Bermudagrass plant response rating: scale 0 to 100 (0 no effect, 100 complete control)
Excerpt: (§1) Seeds or nutlets of plant species selected from bermudagrass (Cynodon dactylon), Surinam grass (Brachiaria decumbens), cocklebur (Xanthium strumarium), corn (Zea mays), crabgrass (Digitaria sanguinalis), woolly cupgrass (Eriochloa villosa), giant foxtail (Setaria faberii), goosegrass (Eleusine indica), johnsongrass (Sorghum halepense), kochia (Kochia scoparia), lambsquarters (Chenopodium album), morningglory (Ipomoea coccinea), eastern black nightshade (Solanum ptycanthum), yellow nutsedge (Cyperus esculentus), pigweed (Amaranthus retroflexus), common ragweed (Ambrosia elatior), soybean (Glycine max), common (oilseed) sunflower (Helianthus annuus), and velvetleaf (Abutilon theophrasti) were planted and treated preemergence with test chemicals formulated in a non-phytotoxic solvent mixture which included a surfactant.
(§2) At the same time, plants selected from these crop and weed species and also winter barley (Hordeum vulgare), blackgrass (Alopecurus myosuroides), canarygrass (Phalaris minor), chickweed (Stellaria media), downy brome (Bromus tectorum), green foxtail (Setaria viridis), Italian ryegrass (Lolium multiflorum), wheat (Triticum aestivum), wild oat (Avena fatua) and windgrass (Apera spica-venti) were treated with postemergence applications of some of the test chemicals formulated in the same manner. Plants ranged in height from 2 to 18 cm (1- to 4-leaf stage) for postemergence treatments. Plant species in the flooded paddy test consisted of rice (Oryza sativa), umbrella sedge (Cyperus difformis), duck salad (Heteranthera limosa) and barnyardgrass (Echinochloa crus-galli) grown to the 2-leaf stage for testing. Treated plants and controls were maintained in a greenhouse for 12 to 14 days, after which time all species were compared to controls and visually evaluated. Plant response ratings, summarized in Table C, are based on a scale of 0 to 100 where 0 is no effect and 100 is complete control. A dash (-) response means no test result.

[2] = test system: johnsongrass (Sorghum halepense); experiment: Test C pre/postemergence; conditions: for Johnsongrass plant response rating: scale 0 to 100 (0 no effect, 100 complete control)
Excerpt: as §1, §2

[3] = test system: lambsquarters (Chenopodium album); experiment: Test C pre/postemergence; conditions: for Lambsquarters plant response rating: scale 0 to 100 (0 no effect, 100 complete control)
Excerpt: as §1, §2

soybean (Glycine max) = experiment: Test C pre/postemergence; conditions: for Soybean plant response rating: scale 0 to 100 (0 no effect, 100 complete control)
Excerpt: as §1, §2

[4] = test system: chickweed (Stellaria media); experiment: Test C postemergence; conditions: for Chickweed plant response rating: 62 g ai/ha, scale 0 to 100 (0 no effect, 100 complete control); for Plant response rating, Chickweed: scale 0 to 100
Excerpt: as §1, §2

[5] = Postemergence, 250 g ai/ha, scale 0 to 100
[6] = Postemergence, 500 g ai/ha, scale 0 to 100
[7] = Postemergence, 125 g ai/ha, scale 0 to 100
[8] = Preemergence, 62 g ai/ha, scale 0 to 100, 0 no effect, 100 complete control
[9] = Preemergence, 125 g ai/ha, scale 0 to 100
[10] = Preemergence, 250 g ai/ha, scale 0 to 100
[11] = Preemergence, 500 g ai/ha, scale 0 to 100
[12] = Preemergence, 16 g ai/ha, scale 0 to 100, 0 no effect, 100 complete control
[13] = Preemergence, 31 g ai/ha, scale 0 to 100, 0 no effect, 100 complete control

COC(=O)CNc1nc(C2CC2)nc(C(=O)OC)c1Br [Compound 10]
Bermudagrass plant response rating ([1]; Postemergence, 62 g ai/ha): 0 | Plant response rating, Bermudagrass [1, 5]: 0 | Plant response rating, Bermudagrass [1, 6]: 0 | Plant response rating, Bermudagrass [1, 7]: 0 | Plant response rating, Bermudagrass [1, 8]: 0 | Plant response rating, Bermudagrass [1, 9]: 0 | Plant response rating, Bermudagrass [1, 10]: 0 | Plant response rating, Bermudagrass [1, 11]: 0 | Johnsongrass plant response rating ([2]; Postemergence, 62 g ai/ha): 0 | Johnsongrass plant response rating ([2]; Postemergence, 125 g ai/ha): 0 | Plant response rating, Johnsongrass [2, 5]: 0 | Plant response rating, Johnsongrass [2, 6]: 0 | Plant response rating, Johnsongrass [2, 8]: 0 | Plant response rating, Johnsongrass [2, 9]: 0 | Plant response rating, Johnsongrass [2, 10]: 0 | Plant response rating, Johnsongrass [2, 11]: 0 | Lambsquarters plant response rating ([3]; Postemergence, 62 g ai/ha): 60 | Lambsquarters plant response rating ([3]; Postemergence, 125 g ai/ha): 80 | Plant response rating, Lambsquarters [3, 5]: 90 | Plant response rating, Lambsquarters [3, 6]: 100 | Plant response rating, Lambsquarters [3, 8]: 0 | Plant response rating, Lambsquarters [3, 9]: 50 | Plant response rating, Lambsquarters [3, 10]: 65 | Plant response rating, Lambsquarters [3, 11]: 95 | Soybean plant response rating (soybean (Glycine max); Postemergence, 62 g ai/ha): 70 | Soybean plant response rating (soybean (Glycine max); Postemergence, 125 g ai/ha): 80 | Plant response rating, Soybean (soybean (Glycine max); [5]): 90 | Plant response rating, Soybean (soybean (Glycine max); [6]): 100 | Plant response rating, Soybean (soybean (Glycine max); [8]): 0 | Chickweed plant response rating [4]: 0 | Plant response rating, Chickweed ([4]; 125 g ai/ha): 0 | Plant response rating, Chickweed ([4]; 250 g ai/ha): 20 | Plant response rating, Chickweed ([4]; 500 g ai/ha): 70

COCc1nc(C2CC2)nc(N)c1Br [Compound 11]
Plant response rating (scale of 0 to 100), Bermudagrass ([1]; Postemergence, 16 g ai/ha): 0 | Plant response rating (scale of 0 to 100), Bermudagrass ([1]; Postemergence, 31 g ai/ha): 0 | Bermudagrass plant response rating ([1]; Postemergence, 62 g ai/ha): 0 | Plant response rating, Bermudagrass [1, 7]: 0 | Plant response rating, Bermudagrass [1, 12]: 0 | Plant response rating, Bermudagrass [1, 13]: 0 | Plant response rating, Bermudagrass [1, 8]: 0 | Plant response rating, Bermudagrass [1, 9]: 0 | Plant response rating (scale of 0 to 100), Johnsongrass ([2]; Postemergence, 16 g ai/ha): 0 | Plant response rating (scale of 0 to 100), Johnsongrass ([2]; Postemergence, 31 g ai/ha): 0 | Johnsongrass plant response rating ([2]; Postemergence, 62 g ai/ha): 0 | Johnsongrass plant response rating ([2]; Postemergence, 125 g ai/ha): 0 | Plant response rating, Johnsongrass [2, 12]: 0 | Plant response rating, Johnsongrass [2, 13]: 0 | Plant response rating, Johnsongrass [2, 8]: 0 | Plant response rating, Johnsongrass [2, 9]: 75 | Plant response rating (scale of 0 to 100), Lambsquarters ([3]; Postemergence, 16 g ai/ha): 50 | Plant response rating (scale of 0 to 100), Lambsquarters ([3]; Postemergence, 31 g ai/ha): 60 | Lambsquarters plant response rating ([3]; Postemergence, 62 g ai/ha): 70 | Lambsquarters plant response rating ([3]; Postemergence, 125 g ai/ha): 80 | Plant response rating, Lambsquarters [3, 12]: 0 | Plant response rating, Lambsquarters [3, 13]: 0 | Plant response rating, Lambsquarters [3, 8]: 40 | Plant response rating, Lambsquarters [3, 9]: 85 | Plant response rating (scale of 0 to 100), Soybean (soybean (Glycine max); Postemergence, 16 g ai/ha): 45 | Plant response rating (scale of 0 to 100), Soybean (soybean (Glycine max); Postemergence, 31 g ai/ha): 60 | Soybean plant response rating (soybean (Glycine max); Postemergence, 62 g ai/ha): 80 | Soybean plant response rating (soybean (Glycine max); Postemergence, 125 g ai/ha): 95 | Plant response rating, Soybean (soybean (Glycine max); [9]): 55 | Plant response rating (scale of 0 to 100), Chickweed ([4]; 16 g ai/ha): 0 | Plant response rating (scale of 0 to 100), Chickweed ([4]; 31 g ai/ha): 0 | Chickweed plant response rating [4]: 0 | Plant response rating, Chickweed ([4]; 125 g ai/ha): 0
